Measured values published in paper PMC6514812, “[^18F]Fluoroethyltriazolyl Monocyclam Derivatives as Imaging Probes for the Chemokine Receptor CXCR4” (Molecules, 2019).

Assays:
[1] = target: T1, CXCR4 (Homo sapiens, UniProt P61073); experiment: Competition binding assay vs [^68Ga]Pentixafor in PC3-CXCR4 cells; settings: for IC50: vs 100 nM [^68Ga]Pentixafor, PC3-CXCR4 cells, 60 min 37 °C; for Hill Slope, Competitive Binding Experiment: vs [^68Ga]Pentixafor, value ± SD
T1 construct: expressed in transfected cells; host or cells: PC3 (human prostate cancer) cells stably transduced with CXCR4
T1 sequence (P61073 whole entry): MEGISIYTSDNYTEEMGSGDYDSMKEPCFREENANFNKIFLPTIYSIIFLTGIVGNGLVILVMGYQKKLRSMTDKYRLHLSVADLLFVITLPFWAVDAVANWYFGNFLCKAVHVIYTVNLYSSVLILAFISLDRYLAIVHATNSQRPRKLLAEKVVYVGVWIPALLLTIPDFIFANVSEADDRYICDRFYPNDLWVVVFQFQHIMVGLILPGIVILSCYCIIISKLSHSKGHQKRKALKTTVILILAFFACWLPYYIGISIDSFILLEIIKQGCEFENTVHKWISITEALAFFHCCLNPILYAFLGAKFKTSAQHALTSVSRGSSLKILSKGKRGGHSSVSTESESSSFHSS
Procedure: (§1) PC3-CXCR4 cells were plated in 12-well plates at a density of 500,000 cells per well and incubated for 48 h at 37 °C/5% CO2. Prior to the binding assay the cells were incubated in fresh media and 370–555 kBq of [^68Ga]Pentixafor or [^18F]RPS-544 was added to each well. The corresponding concentration of [^68Ga]Pentixafor in each well was 100 nM, and the concentration of [^18F]RPS-544 was approximately 5 pM. Then non-radioactive ligands were added to give a final ligand concentration in the range 0.001–10,000 nM. A total of eight concentrations were studied, and each concentration was tested in triplicate. The cells were incubated for 60 min at 37 °C/5% CO2. The media was removed under suction, the cells were washed with cold PBS 1X and detached and transferred to tubes for counting in 1 M NaOH. The cells were counted in a Wizard^2 Gamma Counter (PerkinElmer, Waltham, MA, USA). Non-specific binding was subtracted, and the IC50 values were determined by assuming a simple competitive binding interaction and fitting the data to a sigmoidal Hill plot in Origin 9.0 (OriginLab, Northampton, MA, USA). Potencies are expressed as IC50 ± standard deviation (Supplemental Data, Figure S7).

[2] = target: T1, CXCR4; experiment: Saturation binding assay in PC3-CXCR4 cells; settings: for Kd: saturation binding, PC3-CXCR4 cells; for Hill Slope, Saturation Binding Experiment: value ± SD
Procedure: To determine the dissociation constants, saturation binding assays were performed in the PC3-CXCR4 cells. The cells were plated as described above, and approximately 5 nM of the radioligand was added to each well. Then the corresponding non-radioactive ligand was added to give a final concentration in the range 0.001–10,000 nM. A total of eight concentrations were tested, and each concentration was tested in triplicate. The samples were washed and counted as described above. Non-specific binding was subtracted, and Kd values were determined by performing a nonlinear one site binding curve fit with equation y = (Bmax · x)/(Kd + x). Values are expressed as Kd ± standard deviation (Supplemental Data, Figure S8).

[3] = test system: PC3-CXCR4 cells; experiment: Cell-associated activity in PC3-CXCR4 cells; format: cell-based, human; settings: 1 h
Procedure: Maximum cell-associated activity was calculated by subtracting the cell uptake of the radioactive ligand at the highest non-radioactive ligand concentration of 10 µM (which we considered to be non-specific uptake/binding) from the cell uptake at the lowest non-radioactive ligand concentration of 10^−5 µM.

[4] = Biodistribution in mice bearing bilateral PC3-WT/PC3-CXCR4 xenograft tumors; format: in vivo, BALB/c mice; settings: 1 h p.i.
Procedure: (§2) All animal studies were approved by the Institutional Animal Care and Use Committee of Weill Cornell Medicine (Protocol Number: 2015-0066) and were undertaken in accordance with the guidelines set forth by the USPHS Policy on Humane Care and Use of Laboratory Animals. Animals were housed under standard conditions in approved facilities with 12 h light/dark cycles. Food and water was provided ad libitum throughout the course of the studies. Hairless 6-to-8-week old male BALB/c inbred athymic nude mice (Jackson Laboratory, Bar Harbor, ME, USA) were inoculated bilaterally with 0.2 mL of a 1:1 mixture of 10^7 PC3-CXCR4 cells in PBS and Matrigel (Corning, Tewksbury, MA, USA) subcutaneously in the left shoulder and 0.2 mL of a 1:1 mixture of 10^7 PC3-WT cells in PBS and Matrigel subcutaneously in the right shoulder. Imaging and biodistribution studies were performed three weeks post-implantation, when tumors were approximately 100–300 mm^3.
(§3) For the biodistribution studies, tumor-bearing animals (n = 5/compound/time point) were injected intravenously with 50–100 μL of a 9% v/v EtOH/saline solution containing approximately 1.1 MBq of the radioligand. […] The mice were euthanized at 1 or 2 h p.i. and tissues including blood, heart, lungs, liver, small intestine, large intestine, stomach (with contents), spleen, pancreas, kidneys, muscle, bone, PC3-WT tumors, PC3-CXCR4 tumors, and tail were collected. All organs were weighed and placed in test tubes for counting in a Wizard^2 Gamma Counter (PerkinElmer, Waltham, MA, USA). For comparison, 1% injected activity standards were prepared and counted along with the tissue samples. The tails were counted to correct for any dose extravasation. Activity in each tissue was corrected for decay and for injected activity and expressed as percent injected dose per gram of tissue (%ID/g) ± standard error.

[5] = test system: PC3-CXCR4 xenograft tumors; experiment: as above; format: in vivo, BALB/c mice; settings: 1 h p.i.
Procedure: as §2, §3

[6] = target: T1, CXCR4; experiment: Competition binding assay vs [^18F]RPS-544 in PC3-CXCR4 cells; settings: approx. 5 pM [^18F]RPS-544; p = 0.85
Procedure: as §1

[7] = blocked by co-injection of 5 mg/kg AMD-3100

Row | IC50 [1] | Hill Slope, Competitive Binding Experiment [1] | Kd [2] | Hill Slope, Saturation Binding Experiment [2] | Blood tissue activity [4] | Bone tissue activity [5] | Heart tissue activity [5] | Kidneys tissue activity [5] | Large Intestine tissue activity [5] | Liver tissue activity [5] | Lungs tissue activity [5] | Muscle tissue activity [5] | PC3-CXCR4 Tumor Uptake [5] | PC3-CXCR4 Tumor-to-Tissue Ratio Blood [5] | PC3-CXCR4 Tumor-to-Tissue Ratio Bone [5] | PC3-CXCR4 Tumor-to-Tissue Ratio Kidneys [5] | PC3-CXCR4 Tumor-to-Tissue Ratio Liver [5] | PC3-CXCR4 Tumor-to-Tissue Ratio Lungs [5] | PC3-CXCR4 Tumor-to-Tissue Ratio Muscle [5] | Compound | Cell-Associated Activity [3] | other results
1 | 356 ± 100 nM | 1.07 ± 0.36 | 366 ± 70 nM | 1.12 ± 0.05 | 0.30±0.06 %ID/g | 1.22±0.03 %ID/g | 0.57±0.05 %ID/g | 12.17 ± 0.78 %ID/g | 0.23±0.02 %ID/g | 3.69±0.21 %ID/g | 0.60±0.08 %ID/g | 0.67±0.08 %ID/g | 1.93 ± 0.18 %ID/g | 6.9 ± 0.2 | 1.4 ± 0.7 | 0.2 ± 0.1 | 0.5 ± 0.1 | 3.3 ± 0.4 | 2.2 ± 0.3 | FCCn1cc(-c2cc(CNCc3ccccn3)ccc2CN2CCCNCCNCCCNCC2)nn1 [RPS-533] | 2.1 ± 0.4 %IA | PC3-CXCR4 Tumor-to-Tissue Ratio PC3-WT [5]: 2.0 ± 0.4; PC3-WT tumor activity [5]: 0.91±0.19 %ID/g; Pancreas tissue activity [5]: 0.44±0.02 %ID/g; Small Intestine tissue activity [5]: 2.19±0.05 %ID/g; Spleen tissue activity [5]: 0.52±0.02 %ID/g; Stomach tissue activity [5]: 0.17±0.04 %ID/g; IC50 vs [^18F]RPS-544 compared with IC50 vs [^68Ga]Pentixafor [6]: not significantly different
2 | 398 ± 41 nM | 1.75 ± 0.33 | 515 ± 68 nM | 2.01 ± 0.22 |  |  |  |  |  |  |  |  |  |  |  |  |  |  |  | FCCn1cc(-c2cc(CN3CCCNCCNCCCNCC3)ccc2CN2CCCNCCNCCCNCC2)nn1 [RPS-545] | 0.8 ± 0.1 %IA | IC50 vs [^18F]RPS-544 compared with IC50 vs [^68Ga]Pentixafor [6]: not significantly different
3 | 515 ± 68 nM | 1.18 ± 0.07 | 314 ± 48 nM | 0.93 ± 0.14 | 0.21±0.07 %ID/g | 0.64±0.14 %ID/g | 0.13±0.03 %ID/g | 7.23 ± 2.66 %ID/g | 0.43±0.10 %ID/g | 4.36±0.24 %ID/g | 0.50±0.04 %ID/g | 0.15±0.04 %ID/g | 2.52 ± 0.11 %ID/g | 11.9 ± 0.1 | 4.0 ± 0.2 | 0.3 ± 0.3 | 0.6 ± 0.1 | 5.0 ± 0.1 | 16.7 ± 0.1 | FCCn1cc(CCNCc2ccc(CN3CCCNCCNCCCNCC3)cc2)nn1 [RPS-552] | 3.5 ± 0.1 %IA | Blood tissue activity [4, 7]: 0.27±0.06 %ID/g; PC3-CXCR4 Tumor-to-Tissue Ratio PC3-WT [5]: 2.5 ± 0.3; PC3-WT tumor activity [5]: 1.00±0.23 %ID/g; Pancreas tissue activity [5]: 0.26±0.05 %ID/g; Small Intestine tissue activity [5]: 0.54±0.06 %ID/g; Spleen tissue activity [5]: 0.92±0.08 %ID/g; Stomach tissue activity [5]: 0.14±0.07 %ID/g; Bone tissue activity [5, 7]: 0.31±0.07 %ID/g; Heart tissue activity [5, 7]: 0.18±0.08 %ID/g; Kidneys tissue activity [5, 7]: 4.41±1.01 %ID/g; Large Intestine tissue activity [5, 7]: 0.22±0.03 %ID/g; Liver tissue activity [5, 7]: 3.15±0.70 %ID/g; Lungs tissue activity [5, 7]: 0.49±0.09 %ID/g; Muscle tissue activity [5, 7]: 0.45±0.67 %ID/g; PC3-CXCR4 tumor activity [5, 7]: 1.20±0.43 %ID/g; PC3-WT tumor activity [5, 7]: 0.85±0.21 %ID/g; Pancreas tissue activity [5, 7]: 0.25±0.04 %ID/g; Small Intestine tissue activity [5, 7]: 0.80±0.11 %ID/g; Spleen tissue activity [5, 7]: 0.70±0.11 %ID/g; Stomach tissue activity [5, 7]: 0.20±0.20 %ID/g
